The text below walks through data of patent US6844358B2, “Phenyl oxo-acetic acids useful in the treatment of insulin resistance and hyperglycemia” (Wyeth, priority 1998, dated 2005).

What is called melting point is the temperature, or range, at which the solid turns liquid. The IC50 is the concentration that gives 50% inhibition.

The structures appear in SMILES notation. Read-outs that look alike come from different tables or passages of the source.

The target in series [1] is T1, recombinant rat protein tyrosine phosphatase, PTP1B (rPTP1B) (Rattus norvegicus, UniProt P20417).
T1 sequence (P20417 1-432): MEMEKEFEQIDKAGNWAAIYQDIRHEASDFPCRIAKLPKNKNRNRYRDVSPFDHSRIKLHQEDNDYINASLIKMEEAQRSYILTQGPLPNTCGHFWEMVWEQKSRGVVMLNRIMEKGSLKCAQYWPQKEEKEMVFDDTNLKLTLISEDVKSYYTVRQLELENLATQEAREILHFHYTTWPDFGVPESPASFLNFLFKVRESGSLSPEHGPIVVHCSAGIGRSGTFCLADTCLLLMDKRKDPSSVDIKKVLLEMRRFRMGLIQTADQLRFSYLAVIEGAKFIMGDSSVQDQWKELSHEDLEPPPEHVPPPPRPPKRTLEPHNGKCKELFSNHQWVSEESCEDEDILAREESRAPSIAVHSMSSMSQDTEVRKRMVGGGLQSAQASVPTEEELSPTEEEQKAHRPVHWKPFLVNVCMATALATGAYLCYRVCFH
The series is classed as biochemical. The following applies: for % change from control at 10 μM: 10 μM compound.

Series [2] concerns the target rat hepatic microsomal PTPases. Conditions: rat hepatic microsomal PTPase; for IC50: dodecaphosphopeptide substrate 50 uM; for % Change from Control at 50 μM: 50 μM compound.
The next series deals with diabetic (ob/ob) mice. The series is described as follows: Blood glucose lowering activity in diabetic (ob/ob) mice. The series is classed as in vivo. The following applies: Mus musculus, po. The procedure:
The procedures used and results obtained are briefly described below. […]
In each test procedure, mice [Male or female ob/ob (C57 B1/6J) and their lean litermates (ob/+ or +/+, Jackson Laboratories) ages 2 to 5 months (10 to 65 g)] of a similar age were randomized according to body weight into 4 groups of 10 mice. The mice were housed 5 per cage and are maintained on normal rodent chow with water ad libitum. Mice received test compound daily by gavage (suspended in 0.5 ml of 0.5% methyl cellulose); dissolved in the drinking water; or admixed in the diet. The dose of compounds given ranges from 2.5 to 200 mg/kg body weight/day. The dose is calculated based on the fed weekly body weight and is expressed as active moiety. […] Control mice received vehicle only.
On the morning of Day 4, 7 or 14 two drops of blood (approximetly 50 ul) were collected into sodium fluoride containing tubes either from the tail vein or after decapitation. For those studies in which the compound was administered daily by gavage the blood samples were collected two hours after compound administration. […]
Analysis of variance followed by Dunett's Comparison Test (one-tailed) are used to estimate the significant difference between the plasma glucose values from the control group and the individual compound treated groups (CMS SAS Release 5.18).

Setting [3] is: 96 h, plasma glucose on Day 4, 7 or 14, suffix a = no significant activity at this dose, read-out: % Change Glucose from Vehicle.
[4] abbreviates: suffix a = no significant activity at this dose, read-out: % Change Insulin from Vehicle.

With `O=C(O)COc1c(Br)cc(C(=O)c2c(Cc3ccccc3)sc3ccccc23)cc1Br` [Example 12, [4-(2-Benzyl-benzo[b]thiophen-3-carbonyl)-2,6-dibromo-phenoxy]-acetic acid], the melting point fell in the range of 162 to 163 °C. Moreover, the “% change from control at 10 μM” value in series [1] (rPTP1B) was −88 (rPTP1B) %. In series [2], this molecule had an IC50 of 27.8 µM. The change in vivo at 100 mg/kg with diabetic (ob/ob) mice (setting [3]) was -30.7%. In the series on diabetic (ob/ob) mice (setting [4]), the change in vivo at 100 mg/kg is -60.7%.

As for `O=C(c1cc(Br)c(OCP(=O)(O)O)c(Br)c1)c1c(Cc2ccccc2)sc2ccccc12` [Example 21, [4-(2-benzyl-benzo[b]thiophen-3-carbonyl)-2,6-dibromo-phenoxymethyl]-phosphonic acid], the melting point is 210 to 212 °C. Besides, the “% change from control at 10 μM” value in series [1] (rPTP1B) is −35 (rPTP1B) %. In series [2], this molecule came in with a 50% inhibitory concentration (IC50) of 34.5 µM.

As to `CCc1oc2ccccc2c1C(=O)c1cc(I)c(O)c(I)c1` [Example 18, (2-ethyl-benzofuran-3-yl)-(4-hydroxy-3,5-diiodo-phenyl)-methanone], in series [1] (rPTP1B), the “% change from control at 10 μM” value is −60 (rPTP1B) %. Further, in series [2], the half-inhibitory concentration (IC50) is 30.7 µM. Further, the change in vivo at 100 mg/kg is -39.6% with diabetic (ob/ob) mice (setting [3]) and -83.6% with diabetic (ob/ob) mice (setting [4]).

Take `O=C(c1cc(Br)c(O)c(Br)c1)c1c(Cc2ccccc2)oc2ccccc12` [Example 14, (2-Benzyl-benzofuran-3-yl)-(3,5-dibromo-4-hydroxy-phenyl)-methanone]: the melting point was 156 to 158 °C. The “% change from control at 10 μM” value in series [1] (rPTP1B) was −81 (rPTP1B) %. For the same molecule, half-maximal inhibition in series [2] (IC50) required 27.8 µM. Besides, the change in vivo at 100 mg/kg in the series with diabetic (ob/ob) mice (setting [3]) is -36.8%. Also, the change in vivo at 100 mg/kg with diabetic (ob/ob) mice (setting [4]) was -40.7%.

`O=C(O)COc1c(Br)cc(C(=O)c2c(CCc3ccccc3)oc3ccccc23)cc1Br` [Example 19, [2,6-Dibromo-4-(2-phenethyl-benzofuran-3-carbonyl)-phenoxy]-acetic acid] returned a melting point of 163 to 164 °C. The “% change from control at 10 μM” value in series [1] (rPTP1B) is −53 (rPTP1B) %. The same molecule yielded an IC50 in series [2] of 26.3 µM.

In turn, `O=C(O)COc1c(I)cc(C(=O)c2c(Cc3ccccc3)oc3ccccc23)cc1I` [Example 17, [4-(2-Benzyl-benzofuran-3-carbonyl)-2,6-diiodo-phenoxy]-acetic acid] yielded a melting point of 144 to 146 °C. Moreover, the “% change from control at 10 μM” value in series [1] (rPTP1B) is listed as −97 (rPTP1B) %. Besides, it took 28.4 µM to reach half-maximal inhibition in series [2] (IC50).

On to `CCCCc1oc2ccccc2c1C(=O)c1cc(Br)c(O)c(Br)c1` [Example 6, (2-Butyl-benzofuran-3-yl)-(3,5-dibromo-4-dihydroxy-phenyl)-methanone], for which the “% change from control at 10 μM” value in series [1] (rPTP1B) is −90 (rPTP1B) %. The same molecule displayed an IC50 in series [2] of 24.2 µM. For the same molecule, the change in vivo at 100 mg/kg was -40.6% in the series on diabetic (ob/ob) mice (setting [3]) and -70.4% with diabetic (ob/ob) mice (setting [4]).

`CCc1oc2ccccc2c1C(=O)c1cc(Br)c(O)c(Br)c1O` [Example 4, (3,5-Dibromo-2,4-dihydroxy-phenyl)-(2-ethyl-benzofuran-3-yl)-methanone] returned a melting point of 150 to 151 °C. For the same molecule, the “% change from control at 10 μM” value in series [1] (rPTP1B) is −64 (rPTP1B) %. Further, in series [2], it took 34.3 µM to reach half-maximal inhibition (IC50). In addition, in the series on diabetic (ob/ob) mice (setting [3]), the change in vivo at 100 mg/kg is -19.8%. Besides, the change in vivo at 100 mg/kg in the series on diabetic (ob/ob) mice (setting [4]) was -61.8%.

For the molecule `CCc1oc2ccc(Cl)cc2c1C(=O)c1cc(Br)c(OCC(=O)O)c(Br)c1` [Example 20, [2,6-dibromo-4-(5-chloro-2-ethyl-1-benzofuran-3-carbonyl)-phenoxy]-acetic acid], the melting point lay in the range of 175 to 177 °C. For the same molecule, in series [1] (rPTP1B), the “% change from control at 10 μM” value is listed as −34 (rPTP1B) %. The same molecule gave an IC50 in series [2] of 40.4 µM.

With `CCCCc1oc2ccccc2c1C(=O)c1cc(Br)c(OCC(=O)O)c(Br)c1` [Example 5, [2,6-Dibromo-4-(2-butyl-benzofuran-3-carbonyl)-phenoxy]-acetic acid], the melting point was 92 to 94 °C. Besides, the “% change from control at 10 μM” value in series [1] (rPTP1B) is −78 (rPTP1B) %. The same molecule gave an IC50 in series [2] of 31.2 µM. Besides, in the series on diabetic (ob/ob) mice (setting [3]), the change in vivo at 100 mg/kg is -20.1%. In addition, in the series with diabetic (ob/ob) mice (setting [4]), the change in vivo at 100 mg/kg is -54.8%.

For the molecule `CCc1oc2ccccc2c1Cc1cc(Br)c(O)c(Br)c1` [Example 3, 2,6-Dibromo-4-(2-ethyl-benzofuran-3-yl-methyl)-phenol], the melting point lay in the range of 87 to 88 °C. Moreover, in series [1] (rPTP1B), the “% change from control at 10 μM” value was −74 (rPTP1B) %. Moreover, the “% Change from Control at 50 μM” value in series [2] is −34%. In the series on diabetic (ob/ob) mice (setting [3]), the change in vivo at 100 mg/kg is -6.2%. Further, the change in vivo at 100 mg/kg in the series with diabetic (ob/ob) mice (setting [4]) was -56.6%.

For `CCc1oc2ccccc2c1C(=O)c1cc(Br)c(OCC(=O)O)c(Br)c1` [Example 2, [2,6-dibromo-4-(2-ethyl-benzofuran-3-carbonyl)-phenoxy]-acetic acid], the melting point was in the range of 135 to 137 °C. For the same molecule, in series [1] (rPTP1B), the “% change from control at 10 μM” value is given as −30 (rPTP1B) %. In addition, the “% Change from Control at 50 μM” value in series [2] is recorded as −25%. In addition, the change in vivo at 100 mg/kg in the series with diabetic (ob/ob) mice (setting [3]) was -48.1%. Besides, in the series on diabetic (ob/ob) mice (setting [4]), the change in vivo at 100 mg/kg was -78.2%.

For the molecule `O=C(O)COc1c(Br)cc(C(=O)c2c(Cc3ccccc3)oc3ccccc23)cc1Br` [Example 10, [4-(2-Benzyl-benzofuran-3-carbonyl)-2,6-dibromo-phenoxy]-acetic acid], the melting point lay within 165 to 167 °C. In series [1] (rPTP1B), the “% change from control at 10 μM” value is recorded as −75 (rPTP1B) %. In series [2], this molecule returned an IC50 of 36 µM. Besides, the change in vivo at 100 mg/kg in the series with diabetic (ob/ob) mice (setting [3]) is -17.7%. For the same molecule, the change in vivo at 100 mg/kg in the series with diabetic (ob/ob) mice (setting [4]) is -70%.

`CC1(COc2ccc(CC3SC(=O)NC3=O)cc2)CCCCC1` (stereo not drawn) [Ciglitazone, 5-(4-(1-methylcyclohexylmethoxy)benzyl)-2,4-dione, reference compound]: the values for the change in vivo at 100 mg/kg in the series with diabetic (ob/ob) mice (setting [3]) and in the series on diabetic (ob/ob) mice (setting [4]) were -43% and -39%, respectively.

As to `O=C(c1cc(I)c(O)c(I)c1)c1c(Cc2ccccc2)oc2ccccc12` [Example 9, (2-Benzyl-benzofuran-3-yl)-(4-hydroxy-3,5-diiodo-phenyl)-methanone], the melting point is 153 to 154 °C. Moreover, the “% change from control at 10 μM” value in series [1] (rPTP1B) was −99 (rPTP1B) %. In addition, in series [2], the IC50 is 22.7 µM. The change in vivo at 100 mg/kg with diabetic (ob/ob) mice (setting [3]) was -37.1%. In addition, the change in vivo at 100 mg/kg in the series with diabetic (ob/ob) mice (setting [4]) is -73.7%.

`O=C(c1cc(Br)c(O)c(Br)c1)c1c(CCc2ccccc2)oc2ccccc12` [Example 15, (3,5-Dibromo-4-hydroxy-phenyl)-(2-phenethyl-benzofuran-3-yl)-methanone] gave a melting point of 153 to 154 °C. Moreover, the IC50 in series [1] (rPTP1B, read-out: IC50) was found to be 2.6 µM. For the same molecule, in series [2], the IC50 turned out to be 20.5 µM. For the same molecule, the change in vivo at 100 mg/kg in the series with diabetic (ob/ob) mice (setting [3]) was -32.8%. Besides, in the series on diabetic (ob/ob) mice (setting [4]), the change in vivo at 100 mg/kg is -10.3%.

Turning to `CCc1oc2ccc(Cl)cc2c1C(=O)c1cc(Br)c(O)c(Br)c1` [Example 13, (5-Chloro-2-ethyl-benzofuran-3-yl)-(3,5-dibromo-4-hydroxy-phenyl)-methanone], in series [1] (rPTP1B), the “% change from control at 10 μM” value is recorded as −64 (rPTP1B) %. The molecule further returned an IC50 in series [2] of 27.1 µM. Also, the change in vivo at 100 mg/kg was -12% with diabetic (ob/ob) mice (setting [3]) and -74.5% with diabetic (ob/ob) mice (setting [4]).

On to `CCc1oc2ccccc2c1C(=O)c1cc(Br)c(O)c(Br)c1` [Example 1, (2-Ethyl-benzofuran-3-yl)-(3,5-dibromo-4-hydroxy-phenyl)-methanone], for which the concentration for half-maximal inhibition (IC50) is 25.8 µM in series [1] and 70.1 µM in series [2]. The results for the change in vivo at 100 mg/kg with diabetic (ob/ob) mice (setting [3]) and with diabetic (ob/ob) mice (setting [4]) were -44.6% and -89.5%, respectively.
